# Source: patent publication US8445510B2, “Fused bicyclic kinase inhibitors” (OSI Pharmaceuticals, LLC, priority 2011, dated 2013)
# pIC50: −log10 of the molar value.
# Experiments:
# Karpas-299 cells = test: Karpas-299 cell proliferation assay (CellTiter-Glo); format: cell-based; conditions: Homo sapiens, 72 h; Karpas-299 cell line (NPM-ALK); 3 days incubation; at least duplicate experiments; read-out: Prolif. IC50
# MKN45 cells = test: MKN45 cell proliferation assay (CellTiter-Glo); format: cell-based; conditions: Homo sapiens, MKN-45, 72 h; MKN45 cell line; 3 days incubation; at least duplicate experiments; read-out: Prolif. IC50
pIC50 (Karpas-299 cells),pIC50 (MKN45 cells),SMILES
6.00 to 6.70,6.70 to 7.30,"COc1ccc(F)c(Cl)c1[C@@H](C)c1c[nH]c2ncc(-c3cn(C)nc3C(N)=O)cc12 [Example 39, 4-{3-[(1S)-1-(2-Chloro-3-fluoro-6-methoxyphenyl)ethyl]-1H-pyrrolo[2,3-b]pyridin-5-yl}-1-methyl-1H-pyrazole-3-carboxamide]"
< 6.00,< 6.00,"COc1ccc(F)c(Cl)c1[C@@H](C)c1c[nH]c2ncc(-c3c(C)nn(C)c3C(N)=O)cc12 [Example 41, 4-{3-[(1S)-1-(2-Chloro-3-fluoro-6-methoxyphenyl)ethyl]-1H-pyrrolo[2,3-b]pyridin-5-yl}-1,3-dimethyl-1H-pyrazole-5-carboxamide]"
6.00 to 6.70,6.70 to 7.30,"COc1ccc(F)c(Cl)c1[C@@H](C)c1c[nH]c2ncc(-c3cnn(C)c3OC)cc12 [Example 62, 3-[(1S)-1-(2-chloro-3-fluoro-6-methoxyphenyl)ethyl]-5-(5-methoxy-1-methyl-1H-pyrazol-4-yl)-1H-pyrrolo[2,3-b]pyridine]"
≥ 7.30,≥ 7.30,"CNC(=O)[C@H]1CC[C@H](n2ncc(-c3cnc4[nH]cc([C@H](C)c5c(OC)ccc(F)c5Cl)c4c3)c2C)CC1 [Example 17, trans-4-(4-{3-[(1S)-1-(2-Chloro-3-fluoro-6-methoxyphenyl)ethyl]-1H-pyrrolo[2,3-b]pyridin-5-yl}-5-methyl-1H-pyrazol-1-yl)-N-methyl cyclohexanecarboxamide]"
≥ 7.30,≥ 7.30,"[2H]C([2H])([2H])[C@H](c1c(OC)ccc(F)c1Cl)c1c[nH]c2ncc(-c3cnn([C@H]4CC[C@H](O)CC4)c3C)cc12 [Example 111, trans-4-(4-{3-[(1S)-1-(2-Chloro-3-fluoro-6-methoxyphenyl)(2,2,2-^2H3)ethyl]-1H-pyrrolo[2,3-b]pyridin-5-yl}-5-methyl-1H-pyrazol-1-yl)cyclohexanol]"
6.00 to 6.70,≥ 7.30,"COc1cc(OC)c(Cl)c([C@@H](C)c2c[nH]c3ncc(-c4cnn([C@H]5CC[C@H](O)CC5)c4C)cc23)c1Cl [Example 106, trans-4-(4-{3-[(1S)-1-(2,6-Dichloro-3,5-dimethoxyphenyl)ethyl]-1H-pyrrolo[2,3-b]pyridin-5-yl}-5-methyl-1H-pyrazol-1-yl)cyclohexanol]"
6.70 to 7.30,≥ 7.30,"Cc1c(-c2cnc3[nH]cc([C@H](C)c4c(Cl)ccc(F)c4Cl)c3c2)cnn1[C@H]1CC[C@H](O)CC1 [Example 67, trans-4-(4-{3-[(1S)-1-(2,6-Dichloro-3-fluorophenyl)ethyl]-1H-pyrrolo[2,3-b]pyridin-5-yl}-5-methyl-1H-pyrazol-1-yl)cyclohexanol]"
6.70 to 7.30,6.70 to 7.30,"COc1ccc(F)c(Cl)c1[C@@H](C)c1c[nH]c2ncc(-c3cnn(C)c3CO)cc12 [Example 44, (4-{3-[(1S)-1-(2-Chloro-3-fluoro-6-methoxyphenyl)ethyl]-1H-pyrrolo[2,3-b]pyridin-5-yl}-1-methyl-1H-pyrazol-5-yl)methanol]"
≥ 7.30,≥ 7.30,"Cc1c(-c2cnc3[nH]cc([C@H](C)c4c(OC(F)F)ccc(F)c4Cl)c3c2)cnn1[C@@H]1C[C@@H](O)[C@@H](O)C1 [Example 75, (1R,2S,4S)-4-[4-(3-{(1S)-1-[2-Chloro-6-(difluoromethoxy)-3-fluoro-phenyl]ethyl}-1H-pyrrolo[2,3-b]pyridin-5-yl)-5-methyl-1H-pyrazol-1-yl]cyclopentane-1,2-diol]"
≥ 7.30,≥ 7.30,"COc1ccc(F)c(Cl)c1[C@@H](C)c1c[nH]c2ncc(-c3cnn([C@H]4CC[C@H](C(=O)N(C)C)CC4)c3C)cc12 [Example 14, Trans-4-(4-{3-[(1S)-1-(2-chloro-3-fluoro-6-methoxyphenyl)ethyl]-1H-pyrrolo[2,3-b]pyridin-5-yl}-5-methyl-1H-pyrazol-1-yl)-N,N-dimethylcyclohexanecarboxamide]"
≥ 7.30,≥ 7.30,"Cc1c(-c2cnc3[nH]cc([C@H](C)c4c(OC(F)F)ccc(F)c4Cl)c3c2)cnn1[C@H]1C[C@@H](O)C1 [Example 81, cis-3-[4-(3-{(1S)-1-[2-Chloro-6-(difluoromethoxy)-3-fluorophenyl]ethyl}-1H-pyrrolo[2,3-b]pyridin-5-yl)-5-methyl-1H-pyrazol-1-yl]cyclobutanol]"
6.70 to 7.30,≥ 7.30,"COc1ccc(F)c(Cl)c1[C@@H](C)c1c[nH]c2ncc(-c3cnn(C)c3C)cc12 [Example 3, 3-[(1S)-1-(2-Chloro-3-fluoro-6-methoxyphenyl)ethyl]-5-(1,5-dimethyl-1H-pyrazol-4-yl)-1H-pyrrolo[2,3-b]pyridine]"
6.70 to 7.30,6.70 to 7.30,"CCc1nn(CC(C)(C)O)cc1-c1cnc2[nH]cc([C@H](C)c3c(OC)ccc(F)c3Cl)c2c1 [Example 12, 1-(4-{3-[(1S)-1-(2-Chloro-3-fluoro-6-methoxyphenyl)ethyl]-1H-pyrrolo[2,3-b]pyridin-5-yl}-3-ethyl-1H-pyrazol-1-yl)-2-methylpropan-2-ol]"
6.00 to 6.70,6.70 to 7.30,"COc1ccc(F)c(Cl)c1[C@@H](C)c1c[nH]c2ncc(-c3cn(C)nc3C#N)cc12 [Example 46, 4-{3-[(1S)-1-(2-Chloro-3-fluoro-6-methoxyphenyl)ethyl]-1H-pyrrolo[2,3-b]pyridin-5-yl}-1-methyl-1H-pyrazole-3-carbonitrile]"
6.70 to 7.30,≥ 7.30,"Cc1c(-c2cnc3[nH]cc([C@H](C)c4c(OC(F)F)ccc(F)c4Cl)c3c2)cnn1[C@H]1C[C@@](C)(O)C1 [Example 79, cis-3-[4-(3-{(1S)-1-[2-Chloro-6-(difluoromethoxy)-3-fluorophenyl]ethyl}-1H-pyrrolo[2,3-b]pyridin-5-yl)-5-methyl-1H-pyrazol-1-yl]-1-methylcyclobutanol]"
≥ 7.30,≥ 7.30,"Cc1c(-c2cnc3[nH]cc([C@H](C)c4c(OC(F)F)ccc(F)c4Cl)c3c2)cnn1C[C@H](O)CO [Example 70, (2S)-3-[4-(3-{(1S)-1-[2-Chloro-6-(difluoromethoxy)-3-fluorophenyl]ethyl}-1H-pyrrolo[2,3-b]pyridin-5-yl)-5-methyl-1H-pyrazol-1-yl]propane-1,2-diol]"
6.70 to 7.30,≥ 7.30,"Cc1c(-c2cnc3[nH]cc([C@H](C)c4c(O)ccc(F)c4Cl)c3c2)cnn1[C@H]1CC[C@H](O)CC1 [Example 102, 3-Chloro-4-fluoro-2-[(1S)-1-{5-[1-(trans-4-hydroxycyclohexyl)-5-methyl-1H-pyrazol-4-yl]-1H-pyrrolo[2,3-b]pyridin-3-yl}ethyl]phenol]"
6.70 to 7.30,6.70 to 7.30,"COc1ccc(F)c(Cl)c1[C@@H](C)c1c[nH]c2ncc(-c3cn(C)nc3Cl)cc12 [Example 60, 3-[(1S)-1-(2-chloro-3-fluoro-6-methoxyphenyl)ethyl]-5-(3-chloro-1-methyl-1H-pyrazol-4-yl)-1H-pyrrolo[2,3-b]pyridine]"
≥ 7.30,≥ 7.30,"Cc1c(-c2cnc3[nH]cc([C@H](C)c4c(OC(C)C)ccc(F)c4Cl)c3c2)cnn1[C@H]1CC[C@H](O)CC1 [Example 104, trans-4-[4-(3-{(1S)-1-[2-Chloro-3-fluoro-6-(propan-2-yloxy)phenyl]ethyl}-1H-pyrrolo[2,3-b]pyridin-5-yl)-5-methyl-1H-pyrazol-1-yl]cyclohexanol]"
6.00 to 6.70,6.70 to 7.30,"COc1ccc(F)c(Cl)c1[C@@H](C)c1c[nH]c2ncc(-c3cn(C)nc3CN)cc12 [Example 50, 1-(4-{3-[(1S)-1-(2-Chloro-3-fluoro-6-methoxyphenyl)ethyl]-1H-pyrrolo[2,3-b]pyridin-5-yl}-1-methyl-1H-pyrazol-3-yl)methanamine]"
6.70 to 7.30,≥ 7.30,"C[C@H](c1c(OC(F)F)ccc(F)c1Cl)c1c[nH]c2ncc(-c3cnn([C@H]4CC[C@H](O)CC4)c3CO)cc12 [Example 83, trans-4-[4-(3-{(1S)-1-[2-Chloro-6-(difluoromethoxy)-3-fluorophenyl]ethyl}-1H-pyrrolo[2,3-b]pyridin-5-yl)-5-(hydroxymethyl)-1H-pyrazol-1-yl]cyclohexanol]"
≥ 7.30,6.70 to 7.30,"COc1ccc(F)c(Cl)c1[C@@H](C)c1c[nH]c2ncc(-c3c(C)nn(CC(C)(C)O)c3C)cc12 [Example 5, 1-(4-{3-[(1S)-1-(2-Chloro-3-fluoro-6-methoxyphenyl)ethyl]-1H-pyrrolo[2,3-b]pyridin-5-yl}-3,5-dimethyl-1H-pyrazol-1-yl)-2-methylpropan-2-ol]"
≥ 7.30,≥ 7.30,"[2H][C@@](C)(c1c(OC)ccc(F)c1Cl)c1c[nH]c2ncc(-c3cnn([C@H]4CC[C@H](O)CC4)c3C)cc12 [Example 110, trans-4-(4-{3-[(1S)-1-(2-Chloro-3-fluoro-6-methoxyphenyl)(1-^2H)ethyl]-1H-pyrrolo[2,3-b]pyridin-5-yl}-5-methyl-1H-pyrazol-1-yl)cyclohexanol]"
6.70 to 7.30,≥ 7.30,"[2H]C([2H])([2H])Oc1ccc(F)c(Cl)c1[C@@H](C)c1c[nH]c2ncc(-c3cnn([C@H]4CC[C@H](O)CC4)c3C)cc12 [Example 107, trans-4-(4-{3-[(1S)-1-{2-Chloro-3-fluoro-6-[(^2H3)methyloxy]phenyl}ethyl]-1H-pyrrolo[2,3-b]pyridin-5-yl}-5-methyl-1H-pyrazol-1-yl)cyclohexanol]"
6.70 to 7.30,≥ 7.30,"COc1ccc(F)c(Cl)c1[C@@H](C)c1c[nH]c2ncc(-c3cnn([C@H]4CC[C@H](O)CC4)c3Cl)cc12 [Example 49, trans-4-(5-Chloro-4-{3-[(1S)-1-(2-chloro-3-fluoro-6-methoxyphenyl)ethyl]-1H-pyrrolo[2,3-b]pyridin-5-yl}-1H-pyrazol-1-yl)cyclohexanol]"
6.70 to 7.30,≥ 7.30,"COc1ccc(F)c(Cl)c1[C@@H](C)c1c[nH]c2ncc(-c3c[nH]nc3C)cc12 [Example 1, 3-[(1S)-1-(2-Chloro-3-fluoro-6-methoxyphenyl)ethyl]-5-(3-methyl-1H-pyrazol-4-yl)-1H-pyrrolo[2,3-b]pyridine]"
